In ChEMBL document CHEMBL1201862, “PubChem BioAssay data set” (2004):
One block for each molecule: values may come before it. Calls of active or inactive are those of the source.

Legend:
cells = assay type: functional, cell-based
[1] = molecular target: Macrophage-stimulating protein receptor (Homo sapiens, UniProt Q04912); assay: Navigating the Kinome. Panel member name: MST1R; assay type: functional
[2] = molecular target: Dual specificity protein kinase CLK4 (Homo sapiens, UniProt Q9HAZ1); assay type: functional
Chain of Dual specificity protein kinase CLK4 (Q9HAZ1 whole entry): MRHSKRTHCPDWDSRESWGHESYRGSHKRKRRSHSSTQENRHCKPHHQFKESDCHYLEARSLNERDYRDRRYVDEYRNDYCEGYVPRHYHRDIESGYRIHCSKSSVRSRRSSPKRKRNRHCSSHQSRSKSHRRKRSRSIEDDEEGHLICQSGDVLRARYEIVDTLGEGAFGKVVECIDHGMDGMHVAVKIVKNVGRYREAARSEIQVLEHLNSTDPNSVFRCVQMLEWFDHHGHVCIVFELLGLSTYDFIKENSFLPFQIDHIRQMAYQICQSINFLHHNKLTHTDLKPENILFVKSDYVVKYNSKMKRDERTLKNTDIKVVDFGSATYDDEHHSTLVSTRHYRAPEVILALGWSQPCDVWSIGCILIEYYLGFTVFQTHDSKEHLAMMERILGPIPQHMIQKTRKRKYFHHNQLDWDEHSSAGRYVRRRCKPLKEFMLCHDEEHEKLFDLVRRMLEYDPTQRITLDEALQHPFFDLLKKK

[3] = molecular target: Cyclin-dependent kinase 9 (Homo sapiens, UniProt P50750); assay type: functional;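 further: value from the CDK9 entry of a kinome-spanning kinase panel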
Chain of Cyclin-dependent kinase 9 (P50750 whole entry): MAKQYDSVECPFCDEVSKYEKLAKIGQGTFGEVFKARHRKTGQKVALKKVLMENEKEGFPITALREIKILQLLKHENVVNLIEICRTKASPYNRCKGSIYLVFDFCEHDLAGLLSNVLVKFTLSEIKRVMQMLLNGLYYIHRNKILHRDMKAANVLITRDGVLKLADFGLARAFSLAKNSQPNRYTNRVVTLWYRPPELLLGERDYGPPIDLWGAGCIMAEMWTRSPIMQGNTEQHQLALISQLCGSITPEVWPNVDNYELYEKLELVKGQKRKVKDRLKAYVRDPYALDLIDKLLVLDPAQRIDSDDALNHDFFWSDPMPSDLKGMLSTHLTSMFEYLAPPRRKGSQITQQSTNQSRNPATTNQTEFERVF

[4] = molecular target: Tyrosine-protein kinase BTK (Homo sapiens, UniProt Q06187); assay type: functional
[5] = molecular target: Tyrosine-protein kinase Fyn (Homo sapiens, UniProt P06241); assay type: functional
Chain of Tyrosine-protein kinase Fyn (P06241 whole entry): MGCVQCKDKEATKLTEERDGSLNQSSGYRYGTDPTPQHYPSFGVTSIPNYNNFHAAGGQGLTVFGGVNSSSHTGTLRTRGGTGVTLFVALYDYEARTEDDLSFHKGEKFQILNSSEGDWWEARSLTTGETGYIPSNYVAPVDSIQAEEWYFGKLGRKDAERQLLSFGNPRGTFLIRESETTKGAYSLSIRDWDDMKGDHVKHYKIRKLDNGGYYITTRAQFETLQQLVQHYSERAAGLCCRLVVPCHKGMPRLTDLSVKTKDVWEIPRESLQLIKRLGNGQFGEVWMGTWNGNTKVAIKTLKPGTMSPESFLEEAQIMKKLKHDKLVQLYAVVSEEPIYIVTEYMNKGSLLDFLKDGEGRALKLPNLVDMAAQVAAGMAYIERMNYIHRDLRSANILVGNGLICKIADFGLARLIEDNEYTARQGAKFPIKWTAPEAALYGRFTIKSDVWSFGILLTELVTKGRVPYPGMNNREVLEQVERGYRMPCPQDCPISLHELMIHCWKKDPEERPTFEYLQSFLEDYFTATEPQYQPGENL

[6] = molecular target: Calcium/calmodulin-dependent protein kinase type II subunit alpha (Homo sapiens, UniProt Q9UQM7); assay: Navigating the Kinome. Panel member name: CAMK2A; assay type: functional
[7] = molecular target: Dual specificity mitogen-activated protein kinase kinase 2 (Homo sapiens, UniProt P36507); assay: Navigating the Kinome. Panel member name: MAP2K2; assay type: functional
Chain of Dual specificity mitogen-activated protein kinase kinase 2 (P36507 whole entry): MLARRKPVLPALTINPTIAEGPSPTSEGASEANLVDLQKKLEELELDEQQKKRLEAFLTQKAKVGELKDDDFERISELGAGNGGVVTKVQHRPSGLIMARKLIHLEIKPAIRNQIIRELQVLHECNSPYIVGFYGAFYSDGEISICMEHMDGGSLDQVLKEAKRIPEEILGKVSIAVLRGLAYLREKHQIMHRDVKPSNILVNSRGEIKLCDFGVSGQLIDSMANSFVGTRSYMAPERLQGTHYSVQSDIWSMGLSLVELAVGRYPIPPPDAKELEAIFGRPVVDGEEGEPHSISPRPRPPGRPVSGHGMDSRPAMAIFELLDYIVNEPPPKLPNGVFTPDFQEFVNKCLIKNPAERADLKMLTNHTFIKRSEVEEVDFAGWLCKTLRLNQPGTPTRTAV

[8] = molecular target: High affinity nerve growth factor receptor (Homo sapiens, UniProt P04629); assay type: functional;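 further: NTRK1 tested as one member of a kinome-wide profiling panel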
[9] = molecular target: Mitogen-activated protein kinase kinase kinase kinase 4 (Homo sapiens, UniProt O95819); assay type: functional
Chain of Mitogen-activated protein kinase kinase kinase kinase 4 (O95819 whole entry): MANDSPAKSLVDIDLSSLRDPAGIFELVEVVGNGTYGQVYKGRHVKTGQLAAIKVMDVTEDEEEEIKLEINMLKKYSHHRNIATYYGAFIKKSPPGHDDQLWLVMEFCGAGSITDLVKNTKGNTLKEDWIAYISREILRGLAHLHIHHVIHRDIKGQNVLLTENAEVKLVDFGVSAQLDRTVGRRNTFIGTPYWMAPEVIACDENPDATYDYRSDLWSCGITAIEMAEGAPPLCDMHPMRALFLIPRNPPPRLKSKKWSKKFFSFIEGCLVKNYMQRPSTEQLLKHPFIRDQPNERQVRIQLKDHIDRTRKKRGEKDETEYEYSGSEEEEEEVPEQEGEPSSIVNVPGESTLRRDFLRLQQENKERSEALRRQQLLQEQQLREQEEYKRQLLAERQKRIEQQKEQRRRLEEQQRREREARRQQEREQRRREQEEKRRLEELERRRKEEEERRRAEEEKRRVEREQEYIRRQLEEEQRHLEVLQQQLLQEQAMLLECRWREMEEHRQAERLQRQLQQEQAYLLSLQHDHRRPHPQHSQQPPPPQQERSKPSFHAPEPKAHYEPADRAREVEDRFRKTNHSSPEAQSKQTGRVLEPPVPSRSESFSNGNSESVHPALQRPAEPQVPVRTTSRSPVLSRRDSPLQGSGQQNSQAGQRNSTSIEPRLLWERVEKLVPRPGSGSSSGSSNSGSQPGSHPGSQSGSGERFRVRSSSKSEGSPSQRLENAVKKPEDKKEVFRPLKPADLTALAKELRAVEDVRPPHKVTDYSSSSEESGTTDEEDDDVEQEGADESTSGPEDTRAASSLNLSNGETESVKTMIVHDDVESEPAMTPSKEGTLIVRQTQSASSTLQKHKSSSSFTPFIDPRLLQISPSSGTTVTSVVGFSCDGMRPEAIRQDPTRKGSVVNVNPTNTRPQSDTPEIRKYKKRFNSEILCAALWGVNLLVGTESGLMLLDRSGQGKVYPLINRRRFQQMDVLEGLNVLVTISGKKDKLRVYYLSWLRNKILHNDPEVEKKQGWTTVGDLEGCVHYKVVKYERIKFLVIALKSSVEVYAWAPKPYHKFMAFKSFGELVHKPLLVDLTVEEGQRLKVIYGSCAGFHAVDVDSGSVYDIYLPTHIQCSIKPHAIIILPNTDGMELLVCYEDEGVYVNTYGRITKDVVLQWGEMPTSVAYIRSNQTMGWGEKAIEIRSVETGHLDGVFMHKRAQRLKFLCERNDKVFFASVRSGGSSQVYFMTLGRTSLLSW

[10] = molecular target: cAMP-dependent protein kinase catalytic subunit PRKX (Homo sapiens, UniProt P51817); assay type: functional
Chain of cAMP-dependent protein kinase catalytic subunit PRKX (P51817 whole entry): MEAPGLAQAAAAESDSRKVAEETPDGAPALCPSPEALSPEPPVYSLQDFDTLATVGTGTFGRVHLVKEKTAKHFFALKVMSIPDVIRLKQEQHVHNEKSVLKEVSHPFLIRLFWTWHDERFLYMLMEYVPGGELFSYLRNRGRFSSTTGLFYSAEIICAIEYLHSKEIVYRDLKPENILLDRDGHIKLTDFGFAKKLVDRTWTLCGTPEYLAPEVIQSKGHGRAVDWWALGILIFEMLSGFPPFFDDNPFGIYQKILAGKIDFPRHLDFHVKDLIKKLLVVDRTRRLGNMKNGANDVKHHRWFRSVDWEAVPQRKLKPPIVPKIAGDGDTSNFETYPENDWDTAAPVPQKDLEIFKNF

[11] = molecular target: Tyrosine-protein kinase receptor TYRO3 (Homo sapiens, UniProt Q06418); assay type: functional;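 further: TYRO3 value obtained as one member of a kinome-wide profiling panel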
[12] = molecular target: ALK tyrosine kinase receptor (Homo sapiens, UniProt Q9UM73); assay type: functional;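 further: ALK tested as one member of a kinase panel screen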
Chain of ALK tyrosine kinase receptor (Q9UM73 whole entry): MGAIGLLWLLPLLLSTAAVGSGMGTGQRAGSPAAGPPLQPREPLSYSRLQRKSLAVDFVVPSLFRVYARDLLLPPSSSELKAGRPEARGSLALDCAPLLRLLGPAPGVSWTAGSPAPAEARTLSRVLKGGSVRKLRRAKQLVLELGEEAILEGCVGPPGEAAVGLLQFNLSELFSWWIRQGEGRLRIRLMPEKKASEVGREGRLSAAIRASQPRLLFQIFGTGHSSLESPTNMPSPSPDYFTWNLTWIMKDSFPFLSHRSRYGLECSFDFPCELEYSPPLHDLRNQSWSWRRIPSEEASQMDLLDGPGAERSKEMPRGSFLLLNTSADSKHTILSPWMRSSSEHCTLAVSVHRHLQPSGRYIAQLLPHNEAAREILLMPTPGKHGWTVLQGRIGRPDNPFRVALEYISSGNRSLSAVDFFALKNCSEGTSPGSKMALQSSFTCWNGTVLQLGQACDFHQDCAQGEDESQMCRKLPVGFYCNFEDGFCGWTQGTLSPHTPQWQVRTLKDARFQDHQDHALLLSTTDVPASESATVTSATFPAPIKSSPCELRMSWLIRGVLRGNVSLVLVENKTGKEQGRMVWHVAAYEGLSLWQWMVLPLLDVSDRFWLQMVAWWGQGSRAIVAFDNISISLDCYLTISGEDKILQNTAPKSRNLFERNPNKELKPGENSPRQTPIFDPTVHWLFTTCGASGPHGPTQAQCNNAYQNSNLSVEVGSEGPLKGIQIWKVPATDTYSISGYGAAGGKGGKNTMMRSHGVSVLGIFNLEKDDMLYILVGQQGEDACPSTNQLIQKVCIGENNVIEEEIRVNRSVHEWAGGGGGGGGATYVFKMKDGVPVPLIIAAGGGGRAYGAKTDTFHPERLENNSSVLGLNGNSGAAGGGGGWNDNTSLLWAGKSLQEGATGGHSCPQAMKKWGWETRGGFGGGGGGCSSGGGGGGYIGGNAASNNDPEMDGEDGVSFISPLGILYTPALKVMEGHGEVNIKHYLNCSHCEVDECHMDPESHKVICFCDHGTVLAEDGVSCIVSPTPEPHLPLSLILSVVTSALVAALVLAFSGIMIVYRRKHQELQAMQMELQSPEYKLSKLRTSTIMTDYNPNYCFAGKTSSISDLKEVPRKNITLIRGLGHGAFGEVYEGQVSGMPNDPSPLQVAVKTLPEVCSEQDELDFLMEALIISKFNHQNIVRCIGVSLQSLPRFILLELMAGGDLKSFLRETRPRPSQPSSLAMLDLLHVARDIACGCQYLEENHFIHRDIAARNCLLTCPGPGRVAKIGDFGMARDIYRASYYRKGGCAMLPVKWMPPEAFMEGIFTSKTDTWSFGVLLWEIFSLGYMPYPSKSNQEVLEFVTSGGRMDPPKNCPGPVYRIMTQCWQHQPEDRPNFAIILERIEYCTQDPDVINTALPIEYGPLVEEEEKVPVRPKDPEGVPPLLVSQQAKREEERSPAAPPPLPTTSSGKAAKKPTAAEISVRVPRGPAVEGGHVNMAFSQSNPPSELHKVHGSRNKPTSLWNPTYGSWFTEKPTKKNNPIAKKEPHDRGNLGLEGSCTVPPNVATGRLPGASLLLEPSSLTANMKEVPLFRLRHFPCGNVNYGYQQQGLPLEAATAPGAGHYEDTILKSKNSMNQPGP

[13] = molecular target: G protein-coupled receptor kinase 5 (Homo sapiens, UniProt P34947); assay: Navigating the Kinome. Panel member name: GPRK5; assay type: functional
[14] = molecular target: Serine/threonine-protein kinase pim-1 (Homo sapiens, UniProt P11309); assay type: functional
[15] = NIH-3T3 fibroblast cytotoxicity, dose response, cytotoxicity control, cell-based, fluorescence, Alamar Blue, secondary assay (AID 2327); assay type: functional;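 further: NIH-3T3 mouse fibroblasts cultured with fluconazole at 8 µg/mL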
[16] = molecular target: T1, Rac GTPase-activating protein 1 (Homo sapiens, UniProt Q9H0H5); assay: blockers of MgcRacGAP-driven Rac1 GTP hydrolysis – biochemical, ADP Hunter fluorescence, primary and confirmatory, confirmation (AID 624330); assay type: functional
T1 sequence (Q9H0H5 whole entry): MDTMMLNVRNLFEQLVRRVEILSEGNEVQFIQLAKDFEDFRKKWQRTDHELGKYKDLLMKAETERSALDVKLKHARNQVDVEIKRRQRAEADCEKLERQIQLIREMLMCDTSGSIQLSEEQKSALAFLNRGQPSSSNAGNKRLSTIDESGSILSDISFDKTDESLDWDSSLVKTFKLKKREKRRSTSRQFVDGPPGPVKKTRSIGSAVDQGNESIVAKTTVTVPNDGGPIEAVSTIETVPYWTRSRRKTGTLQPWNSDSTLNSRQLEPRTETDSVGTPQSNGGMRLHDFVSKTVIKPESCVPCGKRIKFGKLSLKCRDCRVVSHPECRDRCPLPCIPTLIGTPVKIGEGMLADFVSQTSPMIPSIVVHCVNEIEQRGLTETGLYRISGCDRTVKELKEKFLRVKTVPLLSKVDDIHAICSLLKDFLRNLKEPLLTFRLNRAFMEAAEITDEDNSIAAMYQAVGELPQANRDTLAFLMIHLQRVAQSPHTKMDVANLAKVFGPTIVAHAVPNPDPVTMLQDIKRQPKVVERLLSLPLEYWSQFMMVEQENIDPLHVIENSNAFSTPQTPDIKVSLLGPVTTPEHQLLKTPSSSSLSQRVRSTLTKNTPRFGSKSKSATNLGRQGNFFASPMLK

[17] = molecular target: ATP-dependent molecular chaperone HSP82 (Candida albicans (strain WO-1) (Yeast), UniProt C4YTQ8); assay: steroid-induced GRE reporter decrease in yeast – S. cerevisiae, luminescence, Hsp90 inhibitor project, dose response (AID 2400); assay type: functional, cell-based;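 further: beta-galactosidase luminescence from glucocorticoid response element reporter as proxy for Hsp90 function; inhibitor potency where signal loss means Hsp90 inhibition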
[18] = molecular target: T2, Apoptotic protease-activating factor 1 (Homo sapiens, UniProt O14727); assay type: functional
T2 sequence (O14727 whole entry): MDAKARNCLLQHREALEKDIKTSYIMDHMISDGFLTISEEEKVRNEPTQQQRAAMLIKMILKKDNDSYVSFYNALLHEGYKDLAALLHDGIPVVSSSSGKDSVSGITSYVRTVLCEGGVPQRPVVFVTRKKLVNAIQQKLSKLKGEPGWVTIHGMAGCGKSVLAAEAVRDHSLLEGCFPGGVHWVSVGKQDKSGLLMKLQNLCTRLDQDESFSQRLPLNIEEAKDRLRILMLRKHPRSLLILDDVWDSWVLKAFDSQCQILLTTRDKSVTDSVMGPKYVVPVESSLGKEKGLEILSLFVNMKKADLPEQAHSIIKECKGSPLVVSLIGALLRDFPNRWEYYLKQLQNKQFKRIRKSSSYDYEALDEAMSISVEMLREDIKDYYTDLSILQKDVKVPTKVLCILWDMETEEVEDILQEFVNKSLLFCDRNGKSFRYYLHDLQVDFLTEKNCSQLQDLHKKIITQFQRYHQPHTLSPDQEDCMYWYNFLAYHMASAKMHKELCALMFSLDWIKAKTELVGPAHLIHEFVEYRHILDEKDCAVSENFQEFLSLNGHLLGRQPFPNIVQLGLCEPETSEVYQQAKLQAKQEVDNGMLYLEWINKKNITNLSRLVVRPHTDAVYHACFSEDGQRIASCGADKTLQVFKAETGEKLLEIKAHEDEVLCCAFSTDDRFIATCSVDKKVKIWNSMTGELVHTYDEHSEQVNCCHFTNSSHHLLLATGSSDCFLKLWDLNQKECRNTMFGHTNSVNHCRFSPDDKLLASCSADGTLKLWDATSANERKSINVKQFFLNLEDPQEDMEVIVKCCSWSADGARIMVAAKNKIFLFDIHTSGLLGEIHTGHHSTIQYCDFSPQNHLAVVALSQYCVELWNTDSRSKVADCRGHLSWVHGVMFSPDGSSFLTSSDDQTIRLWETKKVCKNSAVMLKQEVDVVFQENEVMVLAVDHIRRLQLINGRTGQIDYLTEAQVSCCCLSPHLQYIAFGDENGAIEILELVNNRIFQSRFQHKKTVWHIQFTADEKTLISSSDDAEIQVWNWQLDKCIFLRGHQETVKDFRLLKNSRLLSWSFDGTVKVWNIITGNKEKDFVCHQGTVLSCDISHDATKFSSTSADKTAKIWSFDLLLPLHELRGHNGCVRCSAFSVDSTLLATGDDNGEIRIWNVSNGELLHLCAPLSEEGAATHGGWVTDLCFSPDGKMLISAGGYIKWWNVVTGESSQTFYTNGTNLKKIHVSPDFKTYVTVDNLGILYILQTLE

SMILES: O=C(N/N=C/c1c(O)ccc2ccccc12)c1[nH]ncc1Br
EC50 (cells): 7.76 µM (active)

Ki [1]: > 3.98 µM (inactive)
Ki [2]: > 2.51 µM (inactive)
Ki [3]: > 1.58 µM (inactive)
Ki [4]: 0.316 µM (active)
Ki [5]: 0.316 µM (active)
Ki [6]: > 3.98 µM (inactive)
Ki [7]: > 3.98 µM (inactive)
Ki [8]: 0.1 µM (active)
Ki [9]: > 5.01 µM (inactive)
Ki [10]: > 3.16 µM (inactive)
Ki [11]: 1.26 µM (active)
Ki [12]: > 6.31 µM (inactive)
Ki [13]: > 3.98 µM (inactive)
Ki [14]: > 6.31 µM (inactive)
SMILES: Nc1c(-c2ccc(NC(=O)Nc3cccc(C(F)(F)F)c3)cc2)cnc2c(-c3ccc4c(c3)OCO4)cnn12

SMILES: CCN1C(=Cc2sc3ccccc3[n+]2C)C=Cc2cccc(C)c21
EC50 [15]: 15.5 µM (inconclusive)
IC50 [16]: 55.9 µM (active)
EC50 [17]: 37.3 µM (active)

SMILES: CNC[C@H](Cc1ccccc1)NC[C@@H](Cc1cccc2ccccc12)NCCc1ccc(C)cc1
EC50 [15]: > 160 µM (inconclusive)

IC50 [18]: 7.19 µM (active)
SMILES: Nc1nnc2c(n1)CCCC2

Ki [1]: > 3.98 µM (inactive)
Ki [2]: 0.0251 µM (active)
Ki [3]: > 1.58 µM (inactive)
Ki [4]: > 6.31 µM (inactive)
Ki [5]: > 6.31 µM (inactive)
Ki [6]: > 7.94 µM (inactive)
Ki [7]: > 3.98 µM (inactive)
Ki [8]: > 3.16 µM (inactive)
Ki [9]: 2.51 µM (active)
Ki [10]: > 3.16 µM (inactive)
Ki [11]: > 3.16 µM (inactive)
Ki [12]: > 6.31 µM (inactive)
Ki [13]: > 3.98 µM (inactive)
Ki [14]: > 3.98 µM (inactive)
SMILES: O=C(Nc1cc(-c2c[nH]c3ncccc23)cc(Cl)n1)c1ccccc1

SMILES: O=C(Cc1ccccc1Cl)NC1(O)C(=O)c2ccccc2C1=O
IC50 [18]: 12 µM (active)
